# Earlier results, collected in patent US20210169839A1, “PEDIATRIC IMMEDIATE-RELEASE FORMULATION OF THE POTASSIUM CHANNEL OPENER EZOGABINE” (Xenon Pharmaceuticals Inc., priority 2019, published 2021).
# Where two headings read alike, the source gives them in different places.
# Assays:
# KCNQ2-DEE [1] = test system: KCNQ2-DEE
# KCNQ2-DEE [2] = test system: KCNQ2-DEE; remark: listed apart in the source
# rodent seizure models = settings: battery of rodent seizure models
smiles,measurement,setting,value
"CCOC(=O)Nc1ccc(NCc2ccc(F)cc2)cc1N [Ezogabine, 2-amino-4-(4-fluorobenzylamino)-1-ethoxycarbonylaminobenzene]",serious adverse effects,KCNQ2-DEE [1]; case report of 11 patients,No serious adverse effects were observed
same,improvement in seizures and/or development,KCNQ2-DEE [1]; infants treated before six months of age,three of the four
same,improvement in seizures and/or development,KCNQ2-DEE [1]; patients treated later than six months of age,two of the seven
same,improvements in development or cognition,KCNQ2-DEE [2]; eight children with KCNQ2-DEE,all eight patients
same,Sustained improvement in seizure frequency,KCNQ2-DEE [2]; patients with at least weekly seizures,five of the six
same,anti-convulsant activity,rodent seizure models,broad spectrum activity
